# Reference: US6281234A, “(2-Acylaminothiazole-4-yl)acetic acid derivative” (American Home Products Corporation, priority 1999, dated 2001)
# Target: T1, Recombinant Rat Protein Tyrosine Phosphatase 1B (rPTP1B) (Rattus norvegicus, UniProt P20417)
# T1 construct: laboratory of Dr. Barry Goldstein, Thomas Jefferson University (obtained from, not a commercial purchase)
# T1 sequence (P20417 1-432): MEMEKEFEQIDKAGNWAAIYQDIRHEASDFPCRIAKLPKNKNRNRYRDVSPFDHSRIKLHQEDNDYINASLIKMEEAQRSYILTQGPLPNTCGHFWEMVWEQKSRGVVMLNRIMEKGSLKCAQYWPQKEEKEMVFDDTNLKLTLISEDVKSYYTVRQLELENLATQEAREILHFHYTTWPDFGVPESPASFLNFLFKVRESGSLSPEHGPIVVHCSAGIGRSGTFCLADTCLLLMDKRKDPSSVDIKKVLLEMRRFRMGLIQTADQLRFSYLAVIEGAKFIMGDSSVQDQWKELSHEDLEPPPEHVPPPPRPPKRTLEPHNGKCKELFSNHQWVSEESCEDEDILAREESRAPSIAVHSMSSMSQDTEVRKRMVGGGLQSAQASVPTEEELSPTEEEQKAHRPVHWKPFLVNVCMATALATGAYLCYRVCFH
# Assay: Inhibition of recombinant rat PTP1B (rPTP1B) activity using p-nitrophenylphosphate as substrate
# Format: biochemical
# Conditions: p-nitrophenyl phosphate substrate, pH 7.4, 37° C., 30 min; for inhibition at 25 µM: pH 7.4, All compounds administered at 25 μM; for % inhibition: All compounds administered at 25 μM
# Procedure: Inhibition of Recombinant Rat Protein Tyrosine Phosphatase 1B (rPTP1B) Activity Using p-nitrophenylphosphate as a Substrate.
# Measurement of pNPPase Activity.
# The reaction is started by the addition of p-nitrophenyl phosphate and after 30 minutes at 37° C., the reaction is terminated by adding 1 ml of 0.1 N NaOH. […] The samples are read at 410 nm in a spectrophotometer and are evaluated based on a calibration curve of p-nitrophenol standard solution.
# Compounds were screened robotically at a single concentration of ~25 μM. The results are expressed as percent of control, in that the amount of p-nitrophenol formed in the compound treated samples (nmol/minute/mg protein) is compared to the amount (nmol/minute/mg protein) formed in the untreated samples. p-Nitrophenylphosphatase activity is also determined in each experiment and is expressed per minute per mg protein.
Structure (SMILES),inhibition at 25 µM [%],other results
"CCCCCCCC/C=C\CCCCCCCC(=O)Nc1nc(CC(=O)O)cs1 [Example 1, 2-[((Z)-1-Oxo-9-octadecenyl)amino]-4-thiazoleacetic Acid]",93.4,
"CCCCCCCC/C=C/CCCCCCCC(=O)Nc1nc(CC(=O)O)cs1 [Example 2, 2-[((E)-1-Oxo-9-octadecenyl)amino]-4-thiazoleacetic Acid]",,% inhibition (25 µM): 93.9%
CCCCCCCC/C=C/CCCCCCCC(=O)Nc1nc(CC(=O)O)cs1 [Example 3],,% inhibition (25 µM): 58.16%
CCCCCCCCC#CCCCCCCCC(=O)Nc1nc(CC(=O)O)cs1 [Example 4],84.8,
CCCCCCCCCCC/C=C\CCCCC(=O)Nc1nc(CC(=O)O)cs1 [Example 5],95,
"CCCCCC/C=C\CCCCCCCC(=O)Nc1nc(CC(=O)O)cs1 [Example 6, 2-[((Z)-1-Oxo-9-hexadecenyl)amino]-4-thiazoleacetic Acid]",93.8,
"[Na+].[Na+].[Na+].[O]=[V]([O-])([O-])[O-] [Na3 VO4, reference compound]",,% inhibition: 86.3%

# Second part, led by results:
inhibition at 25 µM [%],Structure (SMILES),other results
83.8,"CCCCCC/C=C/CCCCCCCC(=O)Nc1nc(CC(=O)O)cs1 [Example 7, 2-[((E)-1-Oxo-9-hexadecenyl)amino]-4-thiazoleacetic Acid]",
96.6,"CCCCCC/C=C/CCCCCCCCCC(=O)Nc1nc(CC(=O)O)cs1 [Example 8, 2-[((E)-1-Oxo-11-octadecenyl)amino]-4-thiazoleacetic Acid]",
92.4,"CC/C=C\C/C=C\C/C=C\CCCCCCCC(=O)Nc1nc(CC(=O)O)cs1 [Example 9, 2-[((Z,Z,Z)-1-Oxo-9,12,15-octadecatrienyl)amino]-4-thiazoleacetic Acid]",
